# In BindingDB's records for doi:10.1021/jm010992z (Pharmazeutisches Institut Der Universität Freiburg, 2002):
# Columns and labels:
# [1] = target: Sodium-dependent dopamine transporter (Rattus norvegicus) (UniProt P23977); assay: The compound was tested for inhibition of dopamine reuptake
# [2] = Sigma opioid receptor type 2 affinity in rat liver by employing [3H]ditolylguanidine as radioligand
# [3] = Sigma opioid receptor type 1 affinity in guinea pig brain by employing [3H](+)-pentazocine as radioligand.
# Sodium-dependent dopamine transporter (Rattus norvegicus), sequence (P23977 whole entry, looked up): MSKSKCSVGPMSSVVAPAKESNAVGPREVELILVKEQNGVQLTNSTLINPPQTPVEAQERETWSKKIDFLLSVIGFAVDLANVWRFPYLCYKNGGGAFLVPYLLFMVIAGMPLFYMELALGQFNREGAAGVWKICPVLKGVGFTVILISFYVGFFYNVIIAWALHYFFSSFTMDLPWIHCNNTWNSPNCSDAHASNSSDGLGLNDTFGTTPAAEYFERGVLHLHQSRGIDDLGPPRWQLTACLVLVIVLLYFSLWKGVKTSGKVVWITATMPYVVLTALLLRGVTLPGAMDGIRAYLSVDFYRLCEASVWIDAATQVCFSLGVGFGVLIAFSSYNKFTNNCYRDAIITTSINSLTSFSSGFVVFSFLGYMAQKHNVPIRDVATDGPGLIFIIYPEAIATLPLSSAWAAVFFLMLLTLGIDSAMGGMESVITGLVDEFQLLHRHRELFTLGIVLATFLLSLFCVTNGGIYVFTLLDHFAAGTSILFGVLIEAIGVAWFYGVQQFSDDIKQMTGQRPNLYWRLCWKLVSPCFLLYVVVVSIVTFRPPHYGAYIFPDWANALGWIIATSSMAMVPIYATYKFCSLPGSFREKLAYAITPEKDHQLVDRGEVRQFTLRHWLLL
IC50 [1] [µM],Ki [2] [µM],Ki [3] [µM],SMILES
1.6,–,–,COC1Cc2ccccc2C2(CCN(CCCc3ccccc3)CC2)O1 (stereo not given)
> 10,–,–,"COC1OC2(CCN(Cc3ccccc3)CC2)c2ccccc21 (stereo not given) [1'-benzyl-3-methoxyspiro[1,3-dihydroisobenzofuran-1,4'-(hexahydropyridine)]]"
–,0.107,0.044,"OC1Cc2ccccc2C2(CCN(CCc3ccccc3)CC2)O1 (stereo not given) [1'-phenethylspiro[3,4-dihydro-1H-isochromene-1,4'-(hexahydropyridine)]-3-ol]"
–,0.311,0.01,"COC1Cc2ccccc2C2(CCN(CCCCc3ccccc3)CC2)O1 (stereo not given) [1-[3-methoxyspiro[3,4-dihydro-1H-isochromene-1,4'-(hexahydropyridine)]-1-yl]-4-phenylbutane]"
–,4,0.013,"COC1Cc2ccccc2C2(CCN(C/C=C/c3ccccc3)CC2)O1 (stereo not given) [3-[3-methoxyspiro[3,4-dihydro-1H-isochromene-1,4'-(hexahydropyridine)]-1-yl]-1-phenyl-(E)-1-propene]"

SMILES,IC50 [1] [µM],Ki [2] [µM],Ki [3] [µM]
"COC1Cc2ccccc2C2(CCN(C)CC2)O1 (stereo not given) [3-methoxy-1'-methylspiro[3,4-dihydro-1H-isochromene-1,4'-(hexahydropyridine)]]",–,> 10,4.4
